Reference: US11751567B2, “Steroidal piperidone derivative, synthesis method, and use thereof” (NORTHWEST A&F UNIVERSITY, priority 2021, dated 2023)
Converted amounts (≈) assume the structure as drawn. Read-outs that look alike come from different tables or passages of the source.

Assays:
Type in all cases: in vivo
[1] = system: Brevicoryne brassicae; assay: slide-dip mortality test on aphids (Brevicoryne brassicae); conditions: 24 h, read-out: Corrected mortality (%) Brevicoryne brassicae
Procedure: (§1) Inhibitory activities of the steroidal piperidone derivatives listed in Tables 1 and 2 against Myzus persicae, Aphis citricola, Brevicoryne brassicae, and wheat aphids were determined through slide-dip method. Specific process: A specified amount of a compound to be tested was accurately weighed and dissolved with acetone as a solvent, and solutions with concentrations of 50 μg/mL and 75 μg/mL were each prepared with a 0.1% Tween-80 aqueous solution, allowed to stand at room temperature for 0.5 h until the sample was completely dissolved, and stored for later use. Then, adult aphids were fixed with double-sided tape on slides with a small brush. One end of the slide with the aphids was immersed in the test solutions for 5 seconds. The excess liquid was absorbed with absorbent paper, and the mortality rates were calculated 24 h after treatment. Acetamiprid was adopted as a positive control, and a 0.1% Tween-80 aqueous solution was adopted as a negative control. and the results are shown in Table 1.

[2] = system: Myzus persicae; assay: slide-dip mortality test on aphids (Myzus persicae); conditions: 24 h, read-out: Corrected mortality (%) Myzus persicae
Procedure: as §1

[3] = system: wheat aphids; assay: slide-dip mortality test on aphids (wheat aphids); conditions: 24 h, read-out: Corrected mortality (%) Wheat aphid
Procedure: as §1

[4] = system: Aphis citricola; assay: slide-dip mortality and LC50 test on aphids (Aphis citricola); conditions: for mortality at 50 µg/mL / mortality at 75 µg/mL: 24 h, read-out: Corrected mortality (%) Aphis citricola; for LC50: read-out: LC50 of inhibitory activity against Aphis citricola
Procedure: as §1

[5] = system: rice planthoppers; assay: foliar spray test against rice planthoppers; conditions: 72 h, read-out: Corrected mortality (%) rice planthoppers
Procedure: (§2) The toxic activities of the steroidal piperidone derivatives listed in Table 4 against B. tabaci were tested by a foliar spray method. Specific process: A specified amount of a compound to be tested was accurately weighed and dissolved in acetone, and solutions with concentrations of 50 μg/mL and 75 μg/mL were each prepared with a 0.1% of Tween 80 aqueous solution and stored for later use. The pesticide solution was sprayed on the back side of a cucumber leaf, the cucumber leaf was naturally dried, and B. tabaci to be tested were placed on the cucumber leaf. Thiamethoxam was used as a positive control, and acetone was used as a negative control. Several deaths were observed after 7 d of treatment, and the corrected mortality was calculated.
The toxic activities of the steroidal piperidone derivatives listed in Table 5 against rice planthoppers were tested by a foliar spray method. Imidacloprid was used as a positive control, and acetone was used as a negative control. Several deaths were observed after 3 d of treatment, and the corrected mortality was calculated.

[6] = system: Bemisia tabaci; assay: foliar spray test on cucumber leaf against B. tabaci; conditions: 168 h, read-out: Corrected mortality (%) B. tabaci
Procedure: as §2

[7] = system: Tetranychus truncatus; assay: slide dipping mortality test on mites; conditions: read-out: Corrected mortality (%) Tetranychus truncatus
Procedure: as §1
The inhibitory activities of the steroidal piperidone derivatives listed in Table 3 on Tetranychus truncatus were tested through slide dipping.

[8] = 50 μg/mL, slide dipping, process as for aphids
[9] = 75 μg/mL, slide dipping, process as for aphids

| SMILES | mortality at 50 µg/mL [1] [%] | mortality at 75 µg/mL [1] [%] | mortality at 50 µg/mL [2] [%] | mortality at 75 µg/mL [2] [%] | mortality at 50 µg/mL [3] [%] | mortality at 75 µg/mL [3] [%] | mortality at 50 µg/mL [4] [%] | mortality at 75 µg/mL [4] [%] | LC50 [4] [µg/mL] | mortality at 50 µg/mL [5] [%] | mortality at 75 µg/mL [5] [%] | mortality at 50 µg/mL [6] [%] | mortality at 75 µg/mL [6] [%] | mortality at 50 µg/mL [7, 8] [%] | mortality at 75 µg/mL [7, 9] [%] | mortality at 50 µg/mL [7] [%] | mortality at 75 µg/mL [7] [%] |
| --- | --- | --- | --- | --- | --- | --- | --- | --- | --- | --- | --- | --- | --- | --- | --- | --- | --- |
| C/C(=N\C#N)N(C)Cc1ccc(Cl)nc1 [Acetamiprid, reference compound] | 94.4 | 100 | 94.3 | 100 | 95.5 | 100 | 93.3 | 100 | 9.95 (≈ 44.7 µM) |  |  |  |  |  |  |  |  |
| C[C@]12CC[C@H](O)CC1CC[C@@H]1[C@@H]2CC[C@@]2(C)[C@H]1CCC(=O)N2C(=O)c1ccccc1F (stereo partly shown) [Compound (1)-1] | 42.7 | 65.5 | 53.4 | 75.3 | 50 | 70.3 | 56.2 | 78.4 |  | 42.3 | 56.9 |  |  |  |  |  |  |
| C[C@]12CC[C@H](O)CC1CC[C@@H]1[C@@H]2CC[C@@]2(C)[C@H]1CCC(=O)N2C(=O)c1cccc(F)c1 (stereo partly shown) [Compound (1)-2] | 30.3 | 54 | 26.1 | 55.1 | 22.1 | 50.4 | 39.3 | 61.4 |  | 52.1 | 60.3 |  |  |  |  |  |  |
| C[C@]12CC[C@H](O)CC1CC[C@@H]1[C@@H]2CC[C@@]2(C)[C@H]1CCC(=O)N2C(=O)c1ccc(F)cc1 (stereo partly shown) [Compound (1)-3] | 64 | 82.8 | 69.3 | 89.9 | 70.5 | 90 | 66.3 | 85.2 | 24.6 (≈ 57.5 µM) | 63.3 | 71.2 | 67.7 | 74.7 | 54.3 | 70.3 |  |  |
| C[C@]12CC[C@H](O)CC1CC[C@@H]1[C@@H]2CC[C@@]2(C)[C@H]1CCC(=O)N2C(=O)c1ccc(Cl)cc1 (stereo partly shown) [Compound (1)-4] | 86.5 | 100 | 84.1 | 100 | 91 | 100 | 89.9 | 100 | 11.9 (≈ 26.8 µM) | 72 | 80.4 | 72.5 | 87.4 | 64.2 | 88.6 |  |  |
| C[C@]12CC[C@H](O)CC1CC[C@@H]1[C@@H]2CC[C@@]2(C)[C@H]1CCC(=O)N2C(=O)c1cccc(Br)c1 (stereo partly shown) [Compound (1)-6] | 51.7 | 73.6 | 60.2 | 77.5 | 59.9 | 80 | 44.9 | 78.4 |  | 45.2 | 59.2 | 56.1 | 67.5 | 24.9 | 55.3 |  |  |
| Cc1ccccc1C(=O)N1C(=O)CC[C@H]2[C@@H]3CCC4C[C@@H](O)CC[C@]4(C)[C@H]3CC[C@@]21C (stereo partly shown) [Compound (1)-7] |  |  |  |  |  |  |  |  |  | 36.2 | 45.8 |  |  |  |  |  |  |
| Cc1cccc(C(=O)N2C(=O)CC[C@H]3[C@@H]4CCC5C[C@@H](O)CC[C@]5(C)[C@H]4CC[C@@]32C)c1 (stereo partly shown) [Compound (1)-8] |  |  |  |  |  |  |  |  |  | 38.4 | 53.6 |  |  |  |  |  |  |
| C[C@]12CC[C@H](O)CC1CC[C@@H]1[C@@H]2CC[C@@]2(C)[C@H]1CCC(=O)N2C(=O)c1cccc(C(F)(F)F)c1 (stereo partly shown) [Compound (1)-11] | 24.7 | 50.6 | 25 | 52.8 | 30.4 | 56.5 | 25.8 | 54.5 |  |  |  |  |  |  |  |  |  |
| C[C@]12CC[C@H](O)CC1CC[C@@H]1[C@@H]2CC[C@@]2(C)[C@H]1CCC(=O)N2C(=O)c1ccc(C(F)(F)F)cc1 (stereo partly shown) [Compound (1)-12] | 29.2 | 57.5 | 30.7 | 57.3 | 24.8 | 55.7 | 32.6 | 65.9 |  |  |  |  |  |  |  |  |  |
| C[C@]12CC[C@H](O)CC1=CC[C@@H]1[C@@H]2CC[C@@]2(C)[C@H]1CCC(=O)N2C(=O)c1ccccc1Br [Compound (2)-5] |  |  |  |  |  |  |  |  |  |  |  |  |  | 43.5 | 69.6 |  |  |
| Cc1ccccc1C(=O)N1C(=O)CC[C@H]2[C@@H]3CC=C4C[C@@H](O)CC[C@]4(C)[C@H]3CC[C@@]21C [Compound (2)-7] | 94.4 | 100 | 93.2 | 100 | 96 | 100 | 92.1 | 100 | 10.3 (≈ 24.4 µM) | 64.2 | 79.2 | 76.3 | 88.5 | 66.8 | 88.5 |  |  |
| Cc1cccc(C(=O)N2C(=O)CC[C@H]3[C@@H]4CC=C5C[C@@H](O)CC[C@]5(C)[C@H]4CC[C@@]32C)c1 [Compound (2)-8] | 51.7 | 70.1 | 43.2 | 69.7 | 54.9 | 73.3 | 48.3 | 70.5 |  | 41.9 | 52.4 | 31.8 | 56.3 | 30.3 | 54.4 |  |  |
| Cc1ccc(C(=O)N2C(=O)CC[C@H]3[C@@H]4CC=C5C[C@@H](O)CC[C@]5(C)[C@H]4CC[C@@]32C)cc1 [Compound (2)-9] | 78.7 | 100 | 80.7 | 100 | 85.5 | 100 | 88.8 | 100 | 14.2 (≈ 33.7 µM) | 59.6 | 66.2 | 63.4 | 75.9 | 55.2 | 77.5 |  |  |
| COc1ccc(C(=O)N2C(=O)CC[C@H]3[C@@H]4CC=C5C[C@@H](O)CC[C@]5(C)[C@H]4CC[C@@]32C)cc1 [Compound (2)-10] |  |  |  |  |  |  |  |  |  | 33.2 | 36 | 48.5 | 69.1 |  |  |  |  |
| C[C@]12CC[C@H](O)CC1=CC[C@@H]1[C@@H]2CC[C@@]2(C)[C@H]1CCC(=O)N2C(=O)c1cccc(C(F)(F)F)c1 [Compound (2)-11] | 42.7 | 65.5 | 40.9 | 66.3 | 40 | 59.7 | 44.9 | 72.7 |  | 35.3 | 57.8 | 45.4 | 58.3 |  |  |  |  |
| C[C@]12CC[C@H](O)CC1=CC[C@@H]1[C@@H]2CC[C@@]2(C)[C@H]1CCC(=O)N2C(=O)c1ccc([N+](=O)[O-])cc1 [Compound (2)-13] |  |  |  |  |  |  |  |  |  |  |  |  |  | 33.2 | 56.8 |  |  |
| O=[N+]([O-])NC1=NCCN1Cc1ccc(Cl)nc1 [Imidacloprid, reference compound] |  |  |  |  |  |  |  |  |  | 61.2 | 82.3 |  |  |  |  |  |  |
| CC(C)(C)c1ccc(CSc2cnn(C(C)(C)C)c(=O)c2Cl)cc1 [Pyridaben, reference compound] |  |  |  |  |  |  |  |  |  |  |  |  |  |  |  | 65.3 | 89.3 |
| CN1COCN(Cc2cnc(Cl)s2)/C1=N\[N+](=O)[O-] [Thiamethoxam, reference compound] |  |  |  |  |  |  |  |  |  |  |  | 59.5 | 76.2 |  |  |  |  |
